Measurements published in patent US20100204181A1, “N-HALOGENATED AMINO ACID FORMULATIONS COMPRISING PHOSPHINE OR AMINE OXIDES” (ALCON RESEARCH, LTD., priority 2009, published 2010).

Legend:
S. aureus = experiment: Viable cells per mL of S. aureus after treatment; type: cell-based; details: 5 minutes after treatment
Method: As shown above in Table 1, there were only 24 viable cells per mL measured 5 minutes after treatment with 0.001% N,N-dichloro-2,2-dimethyltaurine formulated with acetate buffer at pH 4. In contrast, there were 27429 and 910 viable cells per mL 5 minutes after treatment with a 0.001% N,N-dichloro-2,2-dimethyltaurine formulation comprising no buffer and adipic acid buffer, respectively.

[1] = Chemical stability of N,N-dichloro-2,2-dimethyltaurine solution with and without TBPO or TMAO; type: physicochemical
Source text: FIG. 1 is a graph showing the stability of a 0.1 w/v % solution of N,N-dichloro-2,2-dimethyltaurine with and without 0.01 w/v % TBPO; and
FIG. 2 is a graph showing the stability of a 0.11 w/v % solution of N,N-dichloro-2,2-dimethyltaurine with and without 0.037 w/v % TMAO.
The present inventors have discovered that the antimicrobial activity of N-halogenated amino acid compounds is enhanced in a formulation comprising a phosphine oxide or amine oxide compound. The enhancement is synergistic, as the phosphine oxide and amine oxide compounds tested have no intrinsic antimicrobial activity. Also the increase in antimicrobial activity of the N-halogenated amino acid compound in the presence of a phosphine oxide and/or amine oxide compound is likely not due to a chemical reaction that generates a new and more reactive chemical species.

CC(C)(CS(=O)(=O)O)N(Cl)Cl [N,N-dichloro-2,2-dimethyltaurine]
viable cells per mL (S. aureus; 0.001% formulated with acetate buffer at pH 4): 24 cells per mL
viable cells per mL (S. aureus; 0.001% formulation, adipic acid buffer): 910 cells per mL
viable cells per mL (S. aureus; 0.001% formulation, no buffer): 27429 cells per mL
chemical stability ([1]; 0.1 w/v % solution with and without 0.01 w/v % TBPO (FIG. 1)): not affected
chemical stability ([1]; 0.11 w/v % solution with and without 0.037 w/v % TMAO (FIG. 2)): not affected
